From patent US11975005B2, “Treatment of respiratory diseases” (TIANLI BIOTECH PTY LTD, priority 2015, dated 2024)
pIC50: −log10 of the molar value.

What was measured:
CK1ε = CK1ε (Homo sapiens, UniProt P49674); experiment: CK1ε inhibition (IC50); format: biochemical
ALK5 = biological target: T1, ALK5 (Homo sapiens, UniProt P36897); experiment: ALK5 inhibition (IC50); format: biochemical
T1 sequence (P36897 34-503): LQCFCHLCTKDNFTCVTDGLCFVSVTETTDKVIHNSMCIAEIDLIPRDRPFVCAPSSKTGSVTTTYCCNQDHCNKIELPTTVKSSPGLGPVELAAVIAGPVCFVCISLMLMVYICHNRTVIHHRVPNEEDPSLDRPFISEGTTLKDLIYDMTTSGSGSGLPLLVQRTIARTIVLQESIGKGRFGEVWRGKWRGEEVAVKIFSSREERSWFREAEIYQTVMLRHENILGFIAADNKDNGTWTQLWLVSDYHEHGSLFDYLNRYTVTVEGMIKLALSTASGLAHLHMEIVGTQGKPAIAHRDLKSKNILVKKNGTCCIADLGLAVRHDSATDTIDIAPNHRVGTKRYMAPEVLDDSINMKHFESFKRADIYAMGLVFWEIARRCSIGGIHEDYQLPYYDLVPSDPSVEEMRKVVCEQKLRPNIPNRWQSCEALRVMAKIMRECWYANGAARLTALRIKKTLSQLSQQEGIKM

human lung fibroblasts = experiment: bFGF/TGFβ proliferation of human lung fibroblasts (viable cell number); format: cell-based; conditions: 48 h
Excerpt: Experiments described in the current Example and Example 14 involved culture of human parenchymal fibroblasts, measurement of their proliferation and gene expression response, the methods for which are detailed in Schuliga et al 2009 (Am J Respir Cell Mol Biol. 2009; 41(6):731-41). Interaction between TGFβ and bFGF in human lung fibroblasts. […] An interaction previously characterized in airway smooth muscle cultures is that TGFβ reduces the proliferative effects of bFGF. A similar finding is observed in human lung fibroblasts, whereby TGFβ reduces the bFGF mitogenic effects.

[1] = system: glucocorticoid response element (GRE) activity; experiment: GRE activity / GRE reporter in BEAS-2B cells; format: cell-based, human; conditions: BEAS-2B cells; RV16 0.1 or 1.0 MOI; SB431542 1 μM
Method: Data are presented as the means and SEM of 3 independent experiments. *P<0.05, cf corresponding Dex 30 nM response.
(§1) The methods used in Examples 1 to 5 (and 10, 19, 20) are similar to those reported in Salem et al 2012 (Br J Pharmacol. 166:2036-2048) and again in Keenan et al 2014 (Respiratory Research, e15:55) in which methods for cell culture, GRE assays and gene expression measurements are fully described. Additional methods for growth of respiratory syncytial virus (RSV) and rhinovirus (RV) are described in Collins et al 2007 (Respir Physiol Neurobiol. 2007 Jun. 15; 156(3):345-52.) and by Xatzipsalti and papdopoulos, 2007 (Contrib Microbiol. 2007; 14:33-41).

[2] = system: GRE-dependent gene expression; experiment: Glucocorticoid-induced gene expression in BEAS-2B cells; format: cell-based, human
Excerpt: as §1
Data are presented as the means and SEM of 4 independent experiments. *P<0.05, cf corresponding Dex 30 nM response. […] Thus, TNFα contribution to glucocorticoid resistance, may be independent of TGFβ. The resistance is exemplified by the epithelial sodium channel alpha subunit SCNN1a which assembles into a Na channel that is thought to contribute to water reabsorption from the airspaces that are flooded during acute lung injury.
TGFβ suppression ranged in magnitude amongst the genes selected for analysis. […] TGFβ and Dex synergise in increasing the expression of PAI-1 (FIG. 24B).

RSV = experiment: 5 day model of RSV infection, treatments from day 1; format: in vivo, mice; conditions: administered from day 1
[3] = human lung fibroblasts, PF4800567 1.0 μM
[4] = FIG. 6A, BEAS-2B, SB431542 1 μM, PF670462 10 μM

Sequence of CK1ε (P49674 whole entry): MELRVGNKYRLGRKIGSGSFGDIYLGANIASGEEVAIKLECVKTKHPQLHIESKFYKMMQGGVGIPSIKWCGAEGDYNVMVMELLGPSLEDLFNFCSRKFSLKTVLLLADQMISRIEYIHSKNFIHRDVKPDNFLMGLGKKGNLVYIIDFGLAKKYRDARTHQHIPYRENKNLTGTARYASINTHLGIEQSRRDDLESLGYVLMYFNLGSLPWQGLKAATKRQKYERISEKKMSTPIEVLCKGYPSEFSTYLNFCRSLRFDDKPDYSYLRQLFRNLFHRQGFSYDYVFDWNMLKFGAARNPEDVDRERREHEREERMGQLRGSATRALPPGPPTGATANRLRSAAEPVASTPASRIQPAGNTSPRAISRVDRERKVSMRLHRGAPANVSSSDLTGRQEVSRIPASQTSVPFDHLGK

SMILES | pIC50 (CK1ε) | pIC50 (ALK5) | bFGF induced mitogenesis (human lung fibroblasts; [3]) | bFGF induced mitogenesis in the presence of TGFβ (human lung fibroblasts; [3]) | impairment of Dexamethasone 30 nM GRE responses by Rhinovirus (RV16) infection [1] | effect of TGFβ on bFGF mitogenesis (human lung fibroblasts; human lung fibroblasts from donors without IPF, viable cell number) | suppression of Dex (30 nM) gene expression response (SCNN1a) induced by IL-13/IL-4 ([2]; BEAS-2B cells, IL-13/IL-4 at 10 ng/ml, PF670462 1 or 10 μM, SB431542 1 μM) | impairment of Dexamethasone 30 nM GILZ gene expression responses by RV16 infection ([2]; BEAS-2B cells, RV16 1.0 MOI, pretreatment) | suppression of Dex (30 nM) gene expression response (SCNN1a) induced by the combination TNFα, IL-13 and IL-4 ([2]; BEAS-2B cells, each at 0.1 ng/ml, PF670462 1 or 10 μM, SB431542 1 μM) | TGFβ suppression of glucocorticoid-induced CDKN1C (p57kip2) expression ([2]; BEAS-2B, Dex 100 nM, PF670462 1-10 μM) | levels of GILZ in RV infected cells [2, 4] | levels of GILZ in uninfected cells [2, 4] | RV infection-induced decrease of Dex-induced GILZ expression ([2]; FIG. 6B, BEAS-2B, SB431542 3 μM, PF670462 3 μM) | accumulation of inflammatory cells in the BAL fluid (RSV)
Nc1ncnc2c1c(COc1cccc(Cl)c1)nn2C1CCOCC1 [PF4800567] | 7.96 | 5.38 | reduced | remained suppressed | – | – | – | – | – | – | – | – | – | –
NC(=O)c1ccc(-c2nc(-c3ccc4c(c3)OCO4)c(-c3ccccn3)[nH]2)cc1 [SB431542] | – | – | – | – | prevented | able to block | some impact | greatly diminished | no detectable effect | completely blocked | increased | but not in uninfected cells | prevented | –
O=C(NC1CCOCC1)c1ccc(-c2cc(-c3c[nH]nc3-c3ccccn3)ccn2)cc1 [GW788388] | 4.73 | – | – | – | – | – | – | – | – | – | – | – | – | no activity
